{"source": "patent US12624350B2", "about": "“High-throughput single-nuclei and single-cell libraries and methods of making and of using” (ILLUMINA, INC., priority 2019, dated 2026)", "assay_type_in_all_cases": "cell-based, human", "key": {"[1]": {"system": "MCF7", "assay": "sci-Plex of pracinostat co-treatment with acetyl-CoA precursors or enzyme inhibitors", "conditions": "24 hours", "source_text": "(§1) To validate this further, we sought to shift the distribution of cells along the HDAC inhibitor trajectory by modulating cellular acetyl-CoA levels. We treated A549 and MCF7 cells with pracinostat in the presence and absence of acetyl-CoA precursors (acetate, pyruvate, or citrate) or inhibitors of enzymes (ACLY, ACSS2, or PDH) involved in replenishing acetyl-CoA pools. After treatment, cells were harvested and processed using sci-Plex and trajectories constructed for each cell line (FIGS. 39 and 40).\n(§2) For 96-well experiments, adherent cells were trypsinized, washed with PBS and plated in tissue culture treated 96 well flat bottom plates (Thermo Fisher Scientific, cat no. 12-656-66) at 25,000 cells per well in 100 μL of media. Suspension cells were washed with PBS and plated in 96 well V-bottom tissue culture plates (Thermo Fisher Scientific, cat no. 549935) at 25,000 cells per well in 100 μL of media. Cells were allowed to recover for 24 hours before treatment with 1 μL of a 1:10 dilution of the appropriate compound or vehicle in PBS to maintain a vehicle concentration of 0.1% for all wells. Cells were then exposed to small molecules at the specified concentration for either 24 or 72 hours. For experiments where cells were co-treated with HDAC inhibitors and either acetate, pyruvate, citrate, ACSS2 inhibitor (EMD Millipore Inc., Cat No. 533756), ACLY inhibitor (Cayman Chemicals, BMS-303141 Cat No. 943962-47-8) or PDH inhibitor (Cayman Chemicals, Cat No. 504817), cells were treated 24 hours after plating and harvested after 24 hours. In this set of experiments, all wells contained a final concentration of 0.2% DMSO to match treatment with both the HDAC inhibitor and inhibitors of metabolic processes.\n(§3) Gene expression profiles were visualized with Monocle 3, which uses UMAP to project them into a two or three dimensional space. Briefly, Monocle 3 first calculates size factors for every cell. Size factors were calculated as the log UMI counts observed in a single cell divided by the geometric mean of log UMI counts from all measured cells. After scaling each nucleus' UMI counts by its library size factor, Monocle3 adds a pseudocount of 1, and log transforms the counts. Next, these log-transformed profiles are projected onto the top 25 principal components. These PCA coordinates were transformed by Monocle 3 (using an approach similar to the removeBatchEffect( ) function in the limma package (42)) according to the model ‘˜log(UMIs)+replicate’ (FIG. 9) or ‘log(UMIs)+viability+proliferation index+replicate’. Adjusted PCA coordinates for each cell are used to initialize UMAP. Unless otherwise noted, UMAP was run with the following parameters: 50 nearest neighbors, min_dist=0.1, inter-cell distance assessed by cosine similarity. UMAP projection of cells after dual HDAC inhibition and acetyl-COA precursor supplementation or acetyl-CoA generating enzyme inhibition was performed as described with the exception that PCA initialization was performed on the top 1000 most overdispersed genes. Louvain community detection was then performed on this UMAP space using the python package ‘louvain’. Trajectory reconstruction was then performed as described in (21)."}, "[2]": {"system": "A549", "assay": "sci-Plex of pracinostat co-treatment with acetyl-CoA precursors or enzyme inhibitors", "conditions": "24 hours", "source_text": "as §1, §2, §3"}, "[3]": {"system": "lung adenocarcinoma-derived (A549) cells", "assay": "sciPlex-ATAC-seq chemical screen (single-cell chromatin accessibility)", "conditions": "A549, 24 hours", "protocol": "Each well of a 96-well culture dish was treated for 24 hours with Nutlin-3A (p53 agonist), SAHA (broad spectrum histone deacetylase inhibitor), BMS345541 (NF-kB inhibitor), Dexamethasone (glucocorticoid receptor agonist) or a vehicle control. Moreover, we varied the dose of drug added to each well, such that the effects of each compound could be evaluated at seven different concentrations. Finally, all treatments were performed in biological triplicate (FIG. 42A). After applying unique labels to each well, cells from all conditions were pooled for parallel preparation of single cell accessible chromatin profiles.\nAdherent cells grown in 96 well format were prepared by first aspirating the existing media. 50 µL of TrypLE (Termo-Fisher) was then added per well and the plate was incubated at 37 C for 15 minutes for A549. After incubation, 1504 of 1×DMEM (Gibco)+10% FBS (Gibco) was added to quench the TrypLE reaction. The 2004 volume cell suspension in each well was then transferred into a V-bottom 96 well plate, preserving the well orientations. Cells were then spun for 5 minutes at 300 g to pellet cells before aspirating media. Cell pellets were washed with 100 μL 1×DPBS and then pelleted at 300 g for 5 minutes. […]\nPooled, hash-labeled nuclei were thawed on ice, inspected for nuclei integrity, counted and further adjusted to 2.5 million nuclei/mL if necessary. […]"}, "[4]": {"system": "A549", "assay": "sci-Plex of A549 cells treated for 72 hours with one of 48 compounds", "conditions": "A549, 72 hours", "protocol": "Such heterogeneity could be explained by cells executing a defined transcriptional program asynchronously, with the dose of drug that the cells are exposed to modulating the rates of their progression through it. To test this hypothesis, we sequenced the transcriptomes of 64,440 A549 cells that were treated for 72 hours with one of 48 compounds, including many of the HDAC inhibitors from the large sci-Plex screen.\nFor 96-well experiments, adherent cells were trypsinized, washed with PBS and plated in tissue culture treated 96 well flat bottom plates (Thermo Fisher Scientific, cat no. 12-656-66) at 25,000 cells per well in 100 μL of media. Suspension cells were washed with PBS and plated in 96 well V-bottom tissue culture plates (Thermo Fisher Scientific, cat no. 549935) at 25,000 cells per well in 100 μL of media. Cells were allowed to recover for 24 hours before treatment with 1 μL of a 1:10 dilution of the appropriate compound or vehicle in PBS to maintain a vehicle concentration of 0.1% for all wells. […]\nTo organize cells treated with HDAC inhibitors into a trajectory cells were sampled to equalize the number of cells represented between the three cell lines or between treatments at 24 and 72 hrs. […] All other cells' pseudodoses was measured as the geodesic distance between their nearest principal graph node to an origin node."}, "[5]": {"system": "A549, MCF7 and K562 cells", "assay": "flow cytometry of total cellular acetylated lysines", "parameters": "dose or concentration left out as unconfirmed", "conditions": "24 hours", "protocol": "A549 and MCF7 cells were seeded in 6 cm dishes at 1.6×10^6 cells per plate. K562 cells were seeded in T25 cm2 flasks at 1.6×10^6 cells per flask. […] After treatment cells were harvested as described above, pellets washed twice in PBS, resuspended in 500 μL of cold PBS and fixed by the addition of 5 mL of ice-cold ethanol while vortexing at low speed. Cells were stored at −20 C prior to processing for flow cytometry analysis. For flow cytometry, ethanol was removed and fixed cells washed twice with PBS containing 1% BSA (PBS-B) and blocked for 1 hour at room temperature. Then, blocking buffer was removed and cells were incubated in PBS containing 1% BSA and 0.1% tryton X-100 (PBS-BT) as well as a 1:500 dilution of mouse anti-acetyl-lysine antibody (cat no. ICP0390, ImmuneChem Pharmaceuticals Inc) for 2 hours at room temperature. After incubation, cells were washed twice with PBS-BT and incubated with goat anti-mouse Alexa-647 in PBS-BT for 1 hour at room temperature. Lastly, cells were washed twice with PBS-BT, once with PBS-B and resuspended in PBS-B containing 5 μg/ml Hoechst 33258 (Life Sciences Technologies) to stain the DNA. Then the levels of total acetylated-lysine and DNA content was analyzed by flow cytometry on an LSRII flow cytometer (BD Biosciences). Quantification and downstream analysis was performed using FlowJo10 (FlowJo.LLC)."}, "[6]": {"system": "A549", "assay": "large-scale sci-Plex screen (sci-RNA-seq3) of 188 compounds", "conditions": "A549, 24 hours; for distinct transcriptional states induced by the same drug (focal enrichments in UMAP): cells from all four doses", "method": "We exposed three well-characterized human cancer cell lines, A549 (lung adenocarcinoma), K562 (chronic myelogenous leukemia), and MCF7 (mammary adenocarcinoma), to each of these 188 compounds at four doses (10 nM, 100 nM, 1 mM, and 10 mM) in duplicate, randomizing compounds and doses across well positions in replicate culture plates (data not shown). These conditions, together with vehicle controls, accounted for 4608 of 4992 independently treated cell populations in this experiment. After treatment, we lysed cells to expose nuclei, hashed them with a specific combination of two oligos (FIG. 10A), and performed sci-RNA-seq3 (21).\nLysis was conducted in the 96 well V-bottom plate. […] For the large compound screen, 500 femtomoles of an additional oligo was used to uniquely index each 96 well treatment plate. After lysis with 3 strokes of multichannel pipette, cells were fixed by addition of 200 μL of fixation buffer (5% Paraformaldehyde, 1.25×PBS). Nuclei were then fixed on ice for 15 minutes before pooling into a trough. Nuclei were pooled by plate into a 50 mL conical tube and pelleted by centrifugation at 500×g for 5 minutes. Subsequently, cells were resuspended in 500 μL of nuclei suspension buffer (NSB; (10 mM Tris-HCl, pH 7.4, 10 mM NaCl, 3 mM MgCl2, 1% Superase RNA Inhibitor, 1% 0.2 mg/mL Ultrapure BSA)). Finally, nuclei from all plates were pooled into a single conical tube and nuclei were pelleted by centrifugation at 500×g for 5 minutes. Nuclei were then resuspended in 1 mL of NSB and flash frozen into liquid nitrogen in 100 μL aliquots. Nuclei were then stored at −80 C until further processing with sci-RNA-seq."}, "[7]": {"system": "A549", "assay": "pilot sci-Plex experiment (sci-RNA-seq2), four compounds", "conditions": "A549, 24 hours, seven doses", "method": "We exposed A549, a human lung adenocarcinoma cell line, to one of four compounds: dexamethasone (a corticosteroid agonist), nutlin-3a (a p53-Mdm2 antagonist), BMS-345541 (an inhibitor of nuclear factor kB-dependent transcription), or vorinostat [suberoylanilide hydroxamic acid (SAHA), an HDAC inhibitor], for 24 hours across seven doses in triplicate for a total of 84 drug-dose-replicate combinations and additional vehicle controls (FIG. 6A and FIG. 7A). We labeled nuclei from each well and subjected them to sci-RNA-seq2 (FIG. 7, B to D, and Table 1).\nTo quantify the “population average” transcriptional response of A549 cells to each of the four drugs, we modeled each gene's expression as a function of dose through generalized linear regression. […] Additionally, we evaluated whether the number of cells recovered at each concentration could be used to infer toxicity akin to traditional screens."}}}
{"smiles": "COc1ccc(-c2ccccc2)cc1NS(=O)(=O)c1cc(Cl)cc(Cl)c1O", "note": "[ACLY inhibitor]", "values": [{"measurement": "shift of pracinostat treated cells along the HDAC inhibitor trajectory", "setting": "[1]", "result": "shifted cells farther along the HDAC inhibitor trajectory"}, {"measurement": "shift of pracinostat treated cells along the HDAC inhibitor trajectory", "setting": "[2]", "result": "no such shift was observed"}]}
{"smiles": "COCCNC(=O)Nc1ccc2nc(-c3cccs3)c(-c3cccs3)nc2c1", "note": "[ACSS2 inhibitor]", "values": [{"measurement": "shift of pracinostat treated cells along the HDAC inhibitor trajectory", "setting": "[1]", "result": "shifted cells farther along the HDAC inhibitor trajectory"}, {"measurement": "shift of pracinostat treated cells along the HDAC inhibitor trajectory", "setting": "[2]", "result": "no such shift was observed"}]}
{"smiles": "O=C(CCCCCCC(=O)Nc1ccccc1)NO", "note": "[SAHA, suberoylanilide hydroxamic acid]", "values": [{"measurement": "accessibility of non-coding sites upstream of the COPS7A locus", "setting": "[3]", "result": "dose dependent accessibility"}, {"measurement": "dosage-dependent change of the chromatin regulatory landscape", "setting": "[3]; seven concentrations", "result": "increasingly altered regulatory landscapes with higher doses"}]}
{"smiles": "Cc1nc(-c2cccnc2)sc1C(=O)Nc1ccccc1-c1cn2c(CN3CCOCC3)csc2n1", "note": "[SRT1024]", "values": [{"measurement": "focal concentrations of cells in coembedded UMAP projection, 72 hours versus 24 hours", "setting": "[4]", "result": "new focal concentrations of cells at 72 hours"}]}
{"smiles": "CN(C)Cc1c(C(=O)NCCOc2ccc(C(=O)NO)cc2)oc2ccccc12", "note": "[abexinostat]", "values": [{"measurement": "acetylated lysine levels", "setting": "[5]", "result": "markedly increased acetylated lysine levels"}]}
{"smiles": "CC(=O)O", "note": "[acetate]", "values": [{"measurement": "shift of pracinostat treated cells along the HDAC inhibitor trajectory", "setting": "[1]", "result": "capable of blocking pracinostat treated cells from reaching the end of the HDAC inhibitor trajectory"}, {"measurement": "shift of pracinostat treated cells along the HDAC inhibitor trajectory", "setting": "[2]", "result": "capable of blocking pracinostat treated cells from reaching the end of the HDAC inhibitor trajectory"}]}
{"smiles": "O=C(O)CC(O)(CC(=O)O)C(=O)O", "note": "[citrate]", "values": [{"measurement": "shift of pracinostat treated cells along the HDAC inhibitor trajectory", "setting": "[1]", "result": "capable of blocking pracinostat treated cells from reaching the end of the HDAC inhibitor trajectory"}, {"measurement": "shift of pracinostat treated cells along the HDAC inhibitor trajectory", "setting": "[2]", "result": "capable of blocking pracinostat treated cells from reaching the end of the HDAC inhibitor trajectory"}]}
{"smiles": "C/C(=C\\c1csc(C)n1)[C@@H]1C[C@@H]2O[C@@H]2CCC[C@H](C)[C@H](O)[C@@H](C)C(=O)C(C)(C)[C@@H](O)CC(=O)O1", "note": "[epothilone A]", "values": [{"measurement": "distinct transcriptional states induced by the same drug (focal enrichments in UMAP)", "setting": "[6]", "result": "associated with three such focal enrichments"}]}
{"smiles": "C/C(=C\\c1csc(C)n1)[C@@H]1C[C@@H]2O[C@]2(C)CCC[C@H](C)[C@H](O)[C@@H](C)C(=O)C(C)(C)[C@@H](O)CC(=O)O1", "note": "[epothilone B]", "values": [{"measurement": "distinct transcriptional states induced by the same drug (focal enrichments in UMAP)", "setting": "[6]", "result": "associated with three such focal enrichments"}]}
{"smiles": "COc1ccc(C2=N[C@@H](c3ccc(Cl)cc3)[C@@H](c3ccc(Cl)cc3)N2C(=O)N2CCNC(=O)C2)c(OC(C)C)c1", "note": "[nutlin-3a]", "values": [{"measurement": "drug-specific pathways revealed by gene ontology analysis of differentially expressed genes", "setting": "[7]", "result": "p53 signaling"}]}
{"smiles": "CCCCc1nc2cc(/C=C/C(=O)NO)ccc2n1CCN(CC)CC", "note": "[pracinostat]", "values": [{"measurement": "heterogeneity of cell response along the HDAC inhibitor pseudodose trajectory at each dose", "setting": "[6]", "result": "homogeneous responses"}, {"measurement": "acetylated lysine levels", "setting": "[5]", "result": "markedly increased acetylated lysine levels"}]}
{"smiles": "CC1(C)O[C@@H]2C[C@H]3[C@@H]4CCC5=CC(=O)C=C[C@]5(C)[C@@]4(F)[C@@H](O)C[C@]3(C)[C@]2(C(=O)CO)O1", "note": "[triamcinolone acetonide]", "values": [{"measurement": "share of the cells of one small UMAP cluster that were treated with the compound", "setting": "[6]; cluster 18, Fisher's exact test FDR<1%", "result": 95, "unit": "%"}]}
